# Patent US8227409B2, “Diketopiperazine microparticles with defined isomer contents” (MannKind Corporation, priority 2009, dated 2012)
# Tests used:
# [1] = Laser diffraction of powder emitted from dry powder inhalers: VMGD and container emptying; type: physicochemical; conditions: 56% trans, SSA 55, pressure drop 4 kPa
# Text: Laser diffraction of dry powder formulations emitted from dry powder inhalers is a common methodology employed to characterize the level of de-agglomeration subjected to a powder. The methodology indicates a measure of geometric size rather than aerodynamic size as occurring in industry standard impaction methodologies. Typically, the geometric size of the emitted powder includes a volumetric distribution characterized by the median particle size, VMGD. Importantly, geometric sizes of the emitted particles are discerned with heightened resolution as compared to the aerodynamic sizes provided by impaction methods. Smaller sizes are preferred and result in greater likelihood of individual particles being delivered to the pulmonary tract. Thus, differences in inhaler de-agglomeration and ultimate performance can be easier to resolve with diffraction. In these experiments, inhalers were tested with laser diffraction at pressures analogous to actual patient inspiratory capacities to determine the effectiveness of the inhalation system to de-agglomerate powder formulations. Specifically, the formulations included cohesive diketopiperazine powders with an active insulin loaded ingredient and without. […] Reported in Table 6 are a VMGD and an efficiency of the container emptying during the testing. FDKP powders have an approximate Carr's index of 50 and TI powder has an approximate Carr's index of 40.
# [2] = Solubility (stated in words); type: physicochemical
smiles,measurement,setting,value
"O=C(O)/C=C/C(=O)NCCCCC1NC(=O)C(CCCCNC(=O)/C=C/C(=O)O)NC1=O (stereo not drawn) [FDKP, 2,5-diketo-3,6-bis(N-fumaryl-4-aminobutyl)piperazine]",% CE,[1]; DPI 2,92.5%
same,VMGD,[1]; DPI 2,6.800 micron
same,% CE,[1]; MedTone,89.5%
same,VMGD,[1]; MedTone,21.200 micron
same,solubility,[2]; at neutral or basic pH,readily soluble
same,solubility,[2]; in acid,low solubility
